Test results from US10350189B2, “Method for transnasal delivery of blood-brain barrier permeation agent and therapeutic agent” (priority 2015, dated 2019).
“Also recorded” adds a separate entry of the source.

Key:
[1] = cited from earlier work
[2] = system: Male Sprague-Dawley rats; assay: Heart rate after intranasal application to the SPG; format: in vivo, rat
Protocol: (§1) Male Sprague-Dawley rats (Harlan, Indianapolis, Ind.) weighing 300-350 g were allowed to acclimate for at least 4 days prior to experimentation. Rats were housed 2 per cage in a room with controlled light (6:00 a.m. to 6:00 p.m.), humidity (50±10%) and temperature (23±1° C.). Animal care and use for experimental procedures was approved by and in accordance with the guidelines of the Midwestern University Institutional Animal Care and Use Committee (IACUC).
(§2) All drugs/solutions were freshly prepared on the day of administration using sterile saline (0.9% NaCl, Hospira, Inc., Lake Forest, Ill.). Urethane (ethyl carbamate, Sigma-Aldrich, St. Louis, Mo.) was administered intraperitoneally (IP) at a dose of 1.5 g/kg. […] Evans blue (5 mL/kg) was administered intravenously (IV) via left femoral vein cannula.
(§3) Two studies were designed for this project, using a total of 42 rats.
(§4) Rats were anesthetized with urethane (1.5 g/kg, IP) and immobilized on a surgical board equipped with a controlled heating pad. Core temperature, measured via rectal probe, was maintained at 37±1° C. In order to maintain blood pO2, pCO2 and pH, and to avoid the effect of respiration on blood pressure (BP) and heart rate (HR), animals were kept on artificial respiration via an endotracheal cannula connected to a rodent ventilator (Model 683, Harvard Apparatus, Inc., Holliston, Mass.). […]

[3] = system: Male Sprague-Dawley rats; assay: Mean arterial pressure after intranasal application to the SPG; format: in vivo, rat
Protocol: as §1, §2, §3, §4

[4] = system: BBB of the rat test subjects; assay: BBB permeability by Evans Blue concentration in brain after intranasal topical application to the SPG; format: in vivo
Source text: Data are presented as mean±SEM. […] A P value of less than 0.05 was considered significant.

[5] = system: Male Sprague-Dawley rats; assay: Cerebral blood flow by Laser Speckle Contrast Analysis after intranasal application to the SPG; format: in vivo, rat; details: rivastigmine-treated (1 and 2 mg/kg) vs saline
Protocol: as §3
Animals anesthetized with urethane were secured into a stereotactic apparatus (David Kopf Instruments, Tujunga, Calif.) and a midline incision was made on their scalp. The skull was slowly thinned using a dremel, working in 30 second periods to minimize heat caused by friction. Cerebral blood flow was measured using Laser Speckle Contrast Analysis (LASCA) technology with a PeriCam PSI HR system (Perimed, Inc., Ardmore, Pa.), captured in real time and analyzed using PIMSoft software (Perimed).
GraphPad Instat 2.00 was used to conduct a power analysis. […] Data are presented as mean±SEM. The significance of differences for mean arterial pressure, heart rate and cerebral blood flow was estimated by 2-way analysis of variance followed by Tukey's post hoc test. One-way analysis of variance followed by Tukey's post hoc test was used to estimate significance for BBB permeability. A P value of less than 0.05 was considered significant. The statistical analysis was processed with GraphPad Prism 6.05 (GraphPad, San Diego, Calif.).

[6] = 1, 2 or 4 mg/kg to the SPG via intranasal cannula

## CNC(=O)Oc1ccc2c(c1)[C@]1(C)CCN(C)[C@@H]1N2C [physostigmine]
[1]
  solubility in water: about 7.76 mg/mL

## COc1ccc2c3c1O[C@H]1C[C@@H](O)C=C[C@@]31CCN(C)C2 [galantamine]
[1]
  solubility in water: about 10 mg/mL

## CN(C)C(=O)Oc1cccc([N+](C)(C)C)c1 [neostigmine]
[2]; 0.4 mg/kg, over time
  heart rate: slight decrease in heart rate
[3]; 0.4 mg/kg, at 15 and 30 min postadministration
  mean arterial pressure: slight decrease in mean arterial pressure

## C/C=C1\[C@H]2C=C(C)C[C@]1(N)c1ccc(=O)[nH]c1C2 [huperzine]
[1]
  solubility in water: about 0.188 mg/mL

## CCN(C)C(=O)Oc1cccc([C@H](C)N(C)C)c1 [rivastigmine]
[1]
  solubility in water: about 2.04 mg/mL
[4]; 1 mg/kg compared with saline, 2 and 4 mg/kg
  BBB permeability, in words: significantly higher than saline; also recorded: greatest permeabilization
[4]; Study I, 2 mg/kg rivastigmine compared with 0.4 mg/kg neostigmine
  BBB permeability, in words: slightly increased permeability of the BBB over neostigmine
[4]; topical administration to the SPG, overall conclusion
  BBB permeability, in words (Evans Blue dye in the CNS): increase in BBB permeability
[2]; [6]
  heart rate: did not significantly vary
[5]
  cerebral blood flow: No significant differences
[3]; [6]
  mean arterial pressure: did not significantly alter
